US8946405B2, “Controlled release from solid supports” (Prolynx LLC, priority 2010, dated 2015)

Assays:
[1] = Release of Nε-2,4-dinitrophenyl-L-lysine from DNP-Lys carbamates (β-elimination), HPLC; type: physicochemical; conditions: after 5 days at 37° C. and pH 7.4
Protocol: A series of linker scaffolds having a range of functional groups as potential pKa modulators (substituted aromatics, ketones, nitriles, sulfones) were designed, prepared and linked via carbamate bonds to Ne-2,4-dinitrophenyl-L-lysine (Ne-DNP-Lys) for evaluation of release rates. DNP-Lys was chosen as the released moiety as is water soluble and is a strong chromophore to permit HPLC-UV analysis.
The rates of release of Nε-2,4-dinitrophenyl-L-lysine from these compounds were determined at pH 7.4 or pH 8.3, 37° C., by HPLC analysis. Kinetic analyses of the release reactions were performed by HPLC (C18; linear MeOH/water+0.5% HOAc gradient) using a UV/vis monitor at 350 nm. The areas under the Lys(DNP) (“P”) and starting material (“S”) peaks were integrated to determine extent of reaction (“R”) as R=P/(S+P). Reaction rates were calculated from the slope the line obtained by linear regression analysis of a plot of ln(1-R) versus time.

[2] = Hydrolysis of carbamate in 50% human serum; type: in vitro ADME; conditions: after 1 week at 37° C.
Excerpt: In general, compared to C—H, a) electron withdrawing groups at R^1 increase the rate; b) alkyl groups at R^5 increase the rate; and c) aryl moieties at R^5 decrease the rate.

O=C(N[C@@H](CCCCNc1ccc([N+](=O)[O-])cc1[N+](=O)[O-])C(=O)O)OCc1ccccc1 [O-benzyl-N—(Nε-2,4-dinitrophenyl-L-lysine)-carbamate]
cleavage (estimated detection limit) [1]: < 0.25%
release of Nε-2,4-dinitrophenyl-L-lysine [1]: no observable release
hydrolysis in 50% human serum [2]: no detectable hydrolysis
